Residues, ends and D or L forms follow the SMILES beside them.
Legend:
[1] = tested on: NSCLC cells (A549, H460, H1299); assay: Colony formation assay; format: cell-based, human; conditions: 10 and 20 μM, 7 days, crystal violet, all NSCLCs
Protocol: (§1) Lung cancer cells were seeded at a density of 10^3 cells in a 35 mm dish and cultured with the peptide for 7 days, until macroscopic colonies formed. Following incubation, the cells were washed and stained with 0.1% crystal violet for 30 min, and the colonies were imaged and counted. Cell morphology was observed and captured at ×10 magnification using an inverted light microscope.

lung cancer cells [2] = assay: Cell morphology by inverted light microscope; format: cell-based, human; conditions: 10 μM MP28, lung cancer cells
Protocol: as §1

horse blood erythrocytes = assay: Hemolytic activity assay; format: cell-based; conditions: 20 μM
From the text: In this assay, 1% Triton X-100, which causes 100% hemolysis of horse blood erythrocytes, was used as a positive control to indicate complete cell lysis. DW solution served as a negative control, indicating no hemolytic activity.

NSCLC cells [3] = assay: Transwell migration assay; format: cell-based, human; conditions: Transwell 8 μm pores, 10 μM
Protocol: (§2) Cell migration and invasion were assessed using Transwell chambers with 8 μm pores (BD Biosciences). Cancer cells (2 × 10^4) were seeded in serum-free medium in the upper chamber, while medium containing 10% FBS was placed in the lower chamber. Matrigel-coated upper chambers were used for invasion assays. Following incubation, the migratory and invasive cells were fixed, stained with crystal violet, and imaged under a light microscope.

NSCLC cells [4] = assay: Transwell invasion assay (Matrigel-coated); format: cell-based, human; conditions: 10 μM
Protocol: as §2

[5] = tested on: cellular vimentin in lung cancer cells; assay: Vimentin immunofluorescence staining; format: cell-based, human; conditions: 10 μM MP28, immunofluorescence
lung cancer cells [6] = assay: Wound-healing assay; format: cell-based, human; conditions: more pronounced at 24 h
Protocol: For the wound-healing assays, cancer cells were grown to >90% confluence in 6-well plates, and scratches were created using a pipette tip. After washing, the cells were incubated in a medium with 10% FBS for 18 h and 24 h. Wound closure was monitored using an inverted phase-contrast microscope (CKX53, Olympus, Shinjuku, Tokyo, Japan), and migration was quantified by measuring the distance between wound edges at multiple sites.

A549 cells = assay: Annexin V/PI staining, flow cytometry; format: cell-based, human; conditions: A549, upper end of the increase (20 μM)
Protocol: (§3) The treated cells (1 × 10^6) were harvested, washed with PBS, and collected by centrifugation. Cells were stained with Annexin V and propidium iodide (PI) solution (556547; BD Biosciences, San Jose, CA, USA), followed by incubation at 37 °C for 15 min. […] As a negative control, z-VAD-FMK was added to each experimental condition according to the manufacturer’s instructions (ab65615; caspase 9 FITC staining kit). The cells were resuspended in 300 μL of a washing buffer and were analyzed by a flow cytometer (Accuri C6 Plus; BD Biosciences, San Jose, CA, USA).

H1299 cells = assay: Annexin V/PI staining, flow cytometry; format: cell-based, human
Protocol: as §3

H460 cells = assay: Annexin V/PI staining, flow cytometry; format: cell-based, human
Protocol: as §3

[7] = tested on: caspase-9 in NSCLC cells (A549, H460, H1299); assay: Active caspase-9 (FITC-LEHD-FMK) staining; format: cell-based, human
Protocol: as §3

[8] = tested on: A549 xenograft in BALB/c nude mice; assay: A549 xenograft tumor growth; format: in vivo, mouse; conditions: 20 mg/kg intratumorally, every other day, six injections, subcutaneous A549
Protocol: (§4) Xenograft tumors were generated by subcutaneous injection of A549 lung cancer cells (1 × 10^6 cells/100 µL) into the right flanks of BALB/c female nude mice (5 weeks of age, n = 20). […] The control mice were injected with equal volumes of DW. The tumor size was measured using a caliper (calculated volume = shortest diameter^2 × […]) at 2- or 3-day intervals. The methods were performed in accordance with the relevant guidelines and regulations and were approved by the Animal Care and Use Committee (IACUC) of the National Marine Biodiversity Institute of Korea (Approval No.: MAB-004; approval date: 2 December 2024).

[9] = Body weight in the A549 xenograft model; format: in vivo, mouse; conditions: 20 mg/kg intratumorally, six injections, during the treatment period
Protocol: as §4

CC(C)C[C@H](NC(=O)[C@H](Cc1c[nH]c2ccccc12)NC(=O)[C@@H]1CCCN1C(=O)[C@H](CCCCN)NC(=O)[C@H](CCCCN)NC(=O)[C@H](CS)NC(=O)[C@@H](N)CS)C(=O)N[C@@H](CCCNC(=N)N)C(=O)N[C@@H](CS)C(=O)N[C@@H](Cc1c[nH]c2ccccc12)C(=O)N[C@@H](CCCNC(=N)N)C(=O)N[C@H](C(=O)N[C@@H](CS)C(=O)N[C@@H](CC(C)C)C(=O)N1CCC[C@H]1C(=O)N[C@@H](CO)C(=O)N[C@@H](CCCNC(=N)N)C(=O)N[C@@H](Cc1c[nH]c2ccccc12)C(=O)N[C@@H](CCC(N)=O)C(=O)N[C@@H](CCCNC(=N)N)C(=O)N[C@@H](CCC(=O)O)C(=O)N[C@@H](CCCNC(=N)N)C(=O)N[C@@H](Cc1ccccc1)C(=O)NCC(=O)N[C@@H](CCCNC(=N)N)C(=O)N[C@@H](CCCCN)C(=O)N[C@@H](CS)C(N)=O)[C@@H](C)O [MP28] (H-CCKKPWLRCWRTCLPSRWQRERFGRKC-NH2; N-terminus assumed)
colony formation (long term cell proliferation) [1]: markedly reduced cell growth
morphological changes (lung cancer cells [2]): morphological changes from a spindle to a cobblestone-like shape
hemolysis (in words) (horse blood erythrocytes): no or minimal hemolysis
migratory capacity (NSCLC cells [3]): significantly reduced
invasive capacity (NSCLC cells [4]): significantly reduced
cellular vimentin level [5]: decreased the levels of cellular vimentin
residual wound area versus control (lung cancer cells [6]): larger residual wound areas
percentage of apoptotic cells (A549 cells): 15.6%
percentage of apoptotic cells (H1299 cells; H1299, lower end of the increase (10 μM as read from the text)): 3.1%
percentage of apoptotic cells (H1299 cells; H1299, upper end of the increase (20 μM)): 17.8%
percentage of apoptotic cells (H460 cells; H460, lower end of the increase (10 μM as read from the text)): 7.5%
percentage of apoptotic cells (H460 cells; H460, upper end of the increase (20 μM)): 19.2%
caspase-9 activation ([7]; 10 μM MP28 for 3 h, NSCLCs, FITC fluorescence microscopy and flow cytometry): triggered caspase-9 activation
induction of cleaved caspase-9 ([7]; A549 and H460 cells (wild-type p53)): more rapid and robust induction of cleaved caspase-9
induction of cleaved caspase-9 ([7]; H1299 cells (p53-deficient)): weaker activation signal
tumor growth versus control [8]: tumor growth was significantly slower
body weight versus control [9]: No significant loss of body weight

From article PMC12734986 (Marine Drugs, 2025)
